The source of these data is US9518107B2, “Pharmaceutical compositions containing polypeptides derived from α-1 antitrypsin and methods of use thereof” (YISSUM RESEARCH DEVELOPMENT COMPANY OF THE HEBREW …, priority 2010, dated 2016).

One assay deals with Female C57BL/6 mice. Nature of the assay: Experimental autoimmune encephalitis (EAE), MOG 35-55 induced, neurological score. Particulars: for neurological symptoms (neurological score 0 to 6): i.p. 1 μg/kg, thrice a week, from four days after MOG immunization, FIG. 3. In kind it is in vivo. The procedure: Female C57BL/6 mice were injected subcutaneously into 4 sites on the back, adjacent to each of the forelimbs and hindlimbs (total amount 200 μl) with a myelin oligodendritic glycoprotein (MOG) 35-55 fragment emulsified with complete Freund's adjuvant. Thereafter, each animal was i.p. injected with pertusis toxin (PTX; 200 ng/mouse) in PBS and an additional
PTX injection was repeated 2 days later, which is a standard protocol for initiating experimental autoimmune encephalomyelitis (EAE) in mice. UBE polypeptide (SEQ ID NO:2) was intraperitoneally (i.p.) injected (0.3 μg/kg, thrice a week) five days after MOG immunization (day of onset of symptoms). The animals were evaluated for neurological score from 0 (no effect) to 6 (severe neurological symptoms including paralysis). Results are the mean±SE of neurological score (sum of all scores divided by the number of animals in each experimental group) at each of the indicated time intervals after MOG injection.
Female C57BL/6 mice were injected subcutaneously into 4 sites on the back, adjacent to each of the forelimbs and hindlimbs (total amount 200 μl) with a myelin oligodendritic glycoprotein (MOG) 35-55 fragment emulsified with complete Freund's adjuvant. Thereafter, each animal was i.p. injected with pertusis toxin (PTX; 200 ng/mouse) in PBS and an additional PTX injection was repeated 2 days later. Four days after MOG immunization, each mouse received i.p. injections (1 μg/kg, thrice a week) of each of the following polypeptides:
The animals were evaluated for neurological score from 0 (no effect) to 6 (severe neurological symptoms including paralysis). Results are the mean±SE of neurological score (sum of all scores divided by the number of animals in each experimental group) at each of the indicated time intervals after immunization.

The next assay relates to arthritic mice. Nature of the assay: Collagen type II induced arthritis, joint swelling. In kind it is in vivo. To be noted: 1 μg/kg thrice a week, from five days after second immunization; FIG. 16. How it is done: Chick collagen type II (2.0 mg) was incubated overnight in 0.01 M acetic acid (0.9 ml) at 4° C. The resulting solution was emulsified with equal volume (1.0 ml) of […] Freund's Adjuvant containing 5.0 mg heat-killed Mycobacterium tuberculosis. Thereafter, the animal was injected intradermally in the tail base with 100 μl of the emulsion and an additional immunization was repeated 21 days later. Five days later, UBE or UBE1 polypeptide were administered (1 μg/kg thrice a week). The animals were evaluated for the difference in joint thickness (mm) between the indicated time intervals and prior to immunization.

The next assay deals with severe sepsis. To be noted: decrease from about 31% without treatment; further trials failed to replicate; cited from earlier work.

Turning to “SMPPIVRFDHPFLFIIFEEHTQSPLFVGKVVDPTH (listed as Mus musculus) [UBE-C, peptide corresponding to residues 378-412 of Mus musculus alpha-1-antitrypsin (serpin a1c)]”, in the assay on Female C57BL/6 mice, the “neurological symptoms (neurological score 0 to 6)” value is “reduced the neurological symptoms”. Consider “YSMPPIVRFDHPFLFIIFEEHTQSPLFVGKVVDPTHK (listed as Mus musculus) [UBE1, peptide corresponding to residues 377-413 of Mus musculus alpha-1-antitrypsin (serpin a1c)]”, for which, in the assay with Female C57BL/6 mice (summary statement, b192 (FIG. 3) does not name UBE1), the “neurological damage in animal models of multiple sclerosis” value is reported as “highly effective in eliminating neurological damage”. Besides, the “joint swelling (difference in joint thickness)” value in the assay on arthritic mice was “reduction in joint swelling”. Consider “MPPIVRFDHPFLFIIFEEHTQSPLFVGKVVDPTHK (listed as Mus musculus) [UBE-N, peptide corresponding to residues 379-413 of Mus musculus alpha-1-antitrypsin (serpin a1c)]”, for which the “neurological symptoms (neurological score 0 to 6)” value with Female C57BL/6 mice is listed as “reduced the neurological symptoms”. As for drotrecogin alfa, the “mortality in severe sepsis” value in the assay on severe sepsis was “about 25%”.
